Test results published in patent US20030143729A1 (Synaptic Pharmaceutical Corporation, priority 1992, published 2003).
“And” between values parts separate entries of the source, which are not always exact repeats. Equal entries are not always repeated. Where two headings read alike, the source gives them in different places.

Key:
rat GAT-2 = target: T1, rat GAT-2 (Rattus norvegicus, UniProt P31646)
T1 sequence (P31646 1-602): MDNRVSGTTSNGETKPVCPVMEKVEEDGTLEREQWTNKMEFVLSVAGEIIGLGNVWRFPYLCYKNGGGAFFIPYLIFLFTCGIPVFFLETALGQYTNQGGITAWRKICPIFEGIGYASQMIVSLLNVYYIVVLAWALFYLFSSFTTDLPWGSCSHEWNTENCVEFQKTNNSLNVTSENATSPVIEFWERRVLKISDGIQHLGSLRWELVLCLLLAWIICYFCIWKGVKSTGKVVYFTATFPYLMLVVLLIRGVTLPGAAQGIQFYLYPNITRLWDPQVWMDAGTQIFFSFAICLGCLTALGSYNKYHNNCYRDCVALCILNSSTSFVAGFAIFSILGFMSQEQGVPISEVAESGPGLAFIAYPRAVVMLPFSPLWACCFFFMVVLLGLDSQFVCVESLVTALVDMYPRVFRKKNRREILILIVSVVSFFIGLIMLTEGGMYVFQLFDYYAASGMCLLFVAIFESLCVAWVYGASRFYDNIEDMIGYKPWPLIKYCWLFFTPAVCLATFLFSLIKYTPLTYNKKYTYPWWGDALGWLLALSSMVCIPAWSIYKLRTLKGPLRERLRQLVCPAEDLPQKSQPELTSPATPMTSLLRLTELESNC
Procedure: (§1) Cells were grown under standard conditions (37° C., 5% CO2) in Dulbecco's modified Eagles's medium (GIBCO, Grand Island, N.Y.).
(§2) Cells grown in 24-well plates were washed 3× with HEPES-buffered saline (HBS, in mM: NaCl, 150; HEPES, 20; CaCl2, 1; glucose, 10; KCl, 5; MgCl2, 1; pH 7.4) and allowed to equilibrate on a 37° C. slide warmer. After 10 minutes the medium was removed and unlabeled drugs in HBS were added (450 μl/well). […] Plates were incubated at 37° C. for 10 minutes, then washed rapidly 3× with ice-cold HBS, using a 24-position plate washer (Brandel, Gaithersburg, Mass.; model PW-12). Cells were solubilized with 0.05% sodium deoxycholate/0.1N NaOH (0.25 ml/well), an aliquot neutralized with 1N HCl, and radioactivity was determined by scintillation counting. Protein was quantified in an aliquot of the solubilized cells using a BIO-RAD protein assay kit, according to the manufacturer's directions.
(§3) Lipophilic inhibitors were dissolved in DMSO.
(§4) Data Analysis: Competition curves were conducted in duplicate, using 10 concentrations of unlabeled drug.

[1] = target: T2, taurine transporter (rB16a) (Rattus norvegicus, UniProt P31643); assay: [3H]taurine uptake by COS-7 cells transfected with rB16a; conditions: for inhibition at 10 µM: COS-7, read-out: % Inhibition of [3H]taurine uptake, rB16a, inhibitor 10 μM; for inhibition at 10 µM / inhibition at 100 µM / inhibition at 1000 µM / % Inhibition of [3H]taurine uptake, rB16a: 50 nM [3H]taurine, 10 minutes, 37° C.; for inhibition at 100 µM: COS-7, read-out: % Inhibition of [3H]taurine uptake, rB16a, inhibitor 100 μM; for inhibition at 1000 µM: COS-7, read-out: % Inhibition of [3H]taurine uptake, rB16a, inhibitor 1 mM
T2 sequence (P31643 1-621): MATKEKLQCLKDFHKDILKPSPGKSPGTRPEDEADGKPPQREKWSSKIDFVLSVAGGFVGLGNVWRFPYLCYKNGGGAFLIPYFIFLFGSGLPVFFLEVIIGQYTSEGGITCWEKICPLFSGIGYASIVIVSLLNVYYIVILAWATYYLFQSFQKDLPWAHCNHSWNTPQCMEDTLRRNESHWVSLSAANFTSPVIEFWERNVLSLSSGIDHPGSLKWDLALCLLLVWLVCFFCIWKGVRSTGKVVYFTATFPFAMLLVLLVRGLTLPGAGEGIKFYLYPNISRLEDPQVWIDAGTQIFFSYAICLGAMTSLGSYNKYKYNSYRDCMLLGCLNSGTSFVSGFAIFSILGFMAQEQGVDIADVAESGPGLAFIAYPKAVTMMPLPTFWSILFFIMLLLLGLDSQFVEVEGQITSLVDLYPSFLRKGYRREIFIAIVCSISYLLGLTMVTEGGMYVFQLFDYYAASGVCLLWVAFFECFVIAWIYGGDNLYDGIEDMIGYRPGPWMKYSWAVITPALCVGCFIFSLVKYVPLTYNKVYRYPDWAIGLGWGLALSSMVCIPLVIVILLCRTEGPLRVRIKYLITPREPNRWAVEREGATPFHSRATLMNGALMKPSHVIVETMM
Procedure: Transient transfections of COS cells with the plasmid pEVJB-rB16a were carried out using DEAE-dextran with DMSO according to the method of Lopata et al. (58) with minor modifications. COS cells were grown (37° C., 5%CO2) in high glucose Dulbecco's modified Eagle medium supplemented with 10% bovine calf serum, 100 U/ml penicillin G, and 100 μg/ml streptomycin sulfate. Cells were routinely used two days after transfection for transport studies.
Plates were incubated at 37° C. for 10 minutes unless indicated otherwise, then washed rapidly 3× with ice cold HBS. Cells were solubilized with 0.05% sodium deoxycholate/0.1N NaOH), an aliquot was neutralized with 1N HCl, and radioactivity was determined by scintillation counting. Protein was quantified in an aliquot of the solubilized cells using a BIO-RAD protein assay kit, according to the manufacturer's directions.

human GAT-3 = target: T3, human GAT-3 (Homo sapiens, UniProt P48066); conditions: 50 nM [3H]GABA
T3 sequence (P48066 1-632): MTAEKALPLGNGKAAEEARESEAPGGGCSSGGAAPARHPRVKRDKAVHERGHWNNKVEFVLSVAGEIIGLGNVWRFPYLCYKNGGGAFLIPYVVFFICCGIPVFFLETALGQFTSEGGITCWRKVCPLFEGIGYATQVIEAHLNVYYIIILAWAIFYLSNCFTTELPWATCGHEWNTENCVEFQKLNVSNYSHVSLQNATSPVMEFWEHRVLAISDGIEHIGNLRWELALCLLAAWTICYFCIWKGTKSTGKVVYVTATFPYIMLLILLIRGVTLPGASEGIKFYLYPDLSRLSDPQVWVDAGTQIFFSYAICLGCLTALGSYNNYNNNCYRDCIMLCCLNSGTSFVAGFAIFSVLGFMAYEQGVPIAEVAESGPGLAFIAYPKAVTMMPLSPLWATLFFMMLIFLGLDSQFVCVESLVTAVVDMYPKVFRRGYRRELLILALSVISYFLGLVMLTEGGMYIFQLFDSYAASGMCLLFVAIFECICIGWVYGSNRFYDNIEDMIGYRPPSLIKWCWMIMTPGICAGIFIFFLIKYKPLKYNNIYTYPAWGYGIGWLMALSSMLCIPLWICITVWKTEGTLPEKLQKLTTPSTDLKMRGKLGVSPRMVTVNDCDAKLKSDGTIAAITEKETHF
Procedure: as §1, §2, §3, §4

rat GAT-1 = rat GAT-1 (Rattus norvegicus, UniProt P23978); conditions: for IC50: read-out: IC50 for inhibition of [3H]GABA uptake, rGAT-1 (Table 8)
Procedure: as §2, §3, §4
COS cells grown in 75 cm^2 or 150 cm^2 flasks in DMEM with 10% bovine calf serum, 100 U/ml penicillin G, and 100 μg/ml streptomycin sulfate (37° C., 5% CO2) were transfected using DEAE-dextran. On the day following transfection the cells were split into 24-well assay plates coated with poly-D-lysine (10 μg/ml), and transport was measured 24 hours later.
After 10 minutes the medium was removed and unlabeled drugs in HBS were added (450 μl/well). […] Plates were incubated at 37° C. for 10 minutes, then washed rapidly 3× with ice-cold HBS, using a 24-position plate washer (Brandel, Gaithersburg, Mass.; model PW-12). Cells were solubilized with 0.05% sodium deoxycholate/0.1N NaOH (0.25 ml/well), an aliquot neutralized with 1N HCl, and radioactivity was determined by scintillation counting. Protein was quantified in an aliquot of the solubilized cells using a BIO-RAD protein assay kit, according to the manufacturer's directions.

[2] = tested on: endogenous taurine transporter in COS cells; assay: [3H]taurine uptake by non-transfected COS-7 cells (control); type: cell-based; conditions: 50 nM [3H]taurine, 10 minutes, 37° C.
hBGT-1 = target: T4, hBGT-1 (Homo sapiens, UniProt P48065); assay: cell-based
T4 sequence (P48065 1-614): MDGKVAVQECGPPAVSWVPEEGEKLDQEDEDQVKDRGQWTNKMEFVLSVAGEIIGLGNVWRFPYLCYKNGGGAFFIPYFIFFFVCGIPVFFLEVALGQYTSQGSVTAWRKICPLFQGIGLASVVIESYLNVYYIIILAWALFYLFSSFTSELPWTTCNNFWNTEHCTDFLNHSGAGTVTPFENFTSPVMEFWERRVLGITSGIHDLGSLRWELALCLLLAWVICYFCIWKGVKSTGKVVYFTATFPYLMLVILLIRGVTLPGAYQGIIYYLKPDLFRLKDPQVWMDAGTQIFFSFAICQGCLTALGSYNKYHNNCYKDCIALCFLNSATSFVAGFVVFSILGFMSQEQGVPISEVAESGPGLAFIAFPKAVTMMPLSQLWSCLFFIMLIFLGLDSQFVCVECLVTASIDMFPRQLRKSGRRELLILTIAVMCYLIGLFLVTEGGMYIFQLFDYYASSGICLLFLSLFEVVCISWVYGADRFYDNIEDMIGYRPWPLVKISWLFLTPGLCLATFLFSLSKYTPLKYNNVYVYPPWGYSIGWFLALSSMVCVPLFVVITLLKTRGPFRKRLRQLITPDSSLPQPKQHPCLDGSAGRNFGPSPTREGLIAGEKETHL
Procedure: as §1, §2, §3, §4

[3] = IC50 for inhibition of [3H]GABA uptake, human GAT-3, stable cell line

Row | Compound | inhibition at 10 µM [1] [%] | inhibition at 100 µM [1] [%] | inhibition at 1000 µM [1] [%] | % Inhibition of [3H]taurine uptake, rB16a ([1]; inhibitor 1 mM) | % Inhibition of [3H]taurine uptake, control ([2]; inhibitor 10 μM) | % Inhibition of [3H]taurine uptake, control ([2]; inhibitor 100 μM) | % Inhibition of [3H]taurine uptake, control ([2]; inhibitor 1 mM) | % Inhibition of [3H]taurine uptake, rB16a ([1]; inhibitor 10 μM) | % Inhibition of [3H]taurine uptake, rB16a ([1]; inhibitor 100 μM) | also measured
1 | NCCCC(=O)O [GABA, gamma-aminobutyric acid] | 9 ± 6 | ~10 | ~40 | 44 ± 6 (8) % | – | – | – | – | – | IC50 (rat GAT-2): ~5 µM; affinity of the taurine transporter for GABA ([1]; from Table 15): ~1 mM; IC50 (human GAT-3; [3]): ~5 µM and ~7 µM
2 | N=C(N)NCCS(=O)(=O)O [GES, guanidinoethanesulfonic acid] | – | – | – | 92% | 6 ± 3 (4) % | 47 ± 3 (5) % | 89 ± 1 (5) % | 11% | 45% | IC50 (rat GAT-1; full competition curves, 50 nM [3H]GABA): 4840 µM
3 | O=C(O)C1=CCCN(CCON=C(c2ccccc2)c2ccccc2)C1 [NNC-711] | – | – | – | – | – | – | – | – | – | IC50 (rat GAT-2; read-out: IC50 for inhibition of [3H]GABA uptake, rat GAT-2, stable cell line, 50 nM [3H]GABA): 171 ± 53 µM; selectivity for GAT-1 (rat GAT-1): 1,000 fold; IC50 (rat GAT-1): 0.38 µM; IC50 (human GAT-3; read-out: IC50 for inhibition of [3H]GABA uptake, human GAT-3, stable cell line): 1700 ± 252 µM
4 | O=C(O)C1=CCCNC1 [guvacine] | – | – | – | – | – | – | – | – | – | IC50 (hBGT-1): > 1 mM
5 | NCCS(=O)O [hypotaurine] | 30 to 40 | ~90 | ~100 | – | 41 ± 3 (7) % | 91 ± 1 (4) % | 99 ± 1 (4) % | 26 ± 7 (7) % | 84 ± 3 (4) % | –
6 | NCCS(=O)(=O)O [taurine, 2-aminoethanesulfonic acid] | 30 to 40 | ~90 | ~100 | 100° % | 38 ± 5 (7) % | 89 ± 2 (4) % | 100° % | 29 ± 8 (5) % | 83 ± 2 (5) % | VMAX of taurine transport, COS/rB16a ([1]; various concentrations of [3H]taurine, 30 seconds): 0.96±0.27 nmoles/mg protein
7 | NCCC(=O)O [β-alanine] | 15 | 51 | 96 | – | 9 ± 2 (6) % | 63 ± 3 (6) % | 97 ± 1 (4) % | – | – | IC50 (hBGT-1; IC50 at hBGT-1): > 1 mM; IC50 (hBGT-1; IC50 for inhibition of [3H]GABA uptake, human BGT-1, stable cell line, 50 nM [3H]GABA): 1.32 ± 0.224 mM; IC50 (rat GAT-2): 19 ± 7 µM; IC50 (human GAT-3; [3]): ~58 µM and 58 µM
8 | hydroxynipecotic acid [OH-nipecotic] | – | – | – | – | – | – | – | – | – | IC50 (rat GAT-1): 44 ± 8 µM
